Legend:
OVCAR3 cells [1] = experiment: Detection of OVCAR3 cell proliferation activity by CTG method; format: cell-based; details: CellTiter-Glo, 7 days
Excerpt: This assay can be used to examine the potency of compounds in inhibiting the proliferation of tumor cells (OVCAR3, HT-29, BT-549, HCT-116). A lower IC50 value indicates high potency of the compound as a KIF18A inhibitor in the following assay setup,
1640 medium; fetal bovine serum; penicillin/streptomycin antibiotics purchased from Wisent; CellTiter-Glo (chemiluminescence detection reagent for cell viability) reagent purchased from Promega; OVCAR3 cell line purchased from Nanjing Cobioer Biosciences Co., Ltd.; Nivo multimode microplate reader (PerkinElmer),
OVCAR3 cells were seeded into a white 96-well plate, with 80 μL of cell suspension containing 2000 OVCAR3 cells added to each well. The cell plate was incubated in a CO2 incubator overnight.
A test compound was 5-fold diluted to the 8th concentration (i.e., from 2 mM to […]) using a multichannel pipette, with duplicate wells set up. To an intermediate plate was added 78 μL of medium, and the serially diluted compound was transferred to the corresponding wells of the intermediate plate at 2 μL/well. The mixture was mixed well and then transferred to the cell plate at 20 μL/well. The concentration of the compound transferred to the cell plate ranged from 10 μM to 0.026 nM. The cell plate was incubated in a CO2 incubator for 7 days. Another cell plate was prepared and read for signal values on the day of compound addition, and these values were used as the maximum values (the Max value in the equation below) in data analysis. To this cell plate was added the chemiluminescence detection reagent for cell viability at 25 μL/well, and the luminescence signals were stabilized by incubation at room temperature for 10 min. Readings were taken using the multimode microplate reader.
To the cell plate was added the chemiluminescence detection reagent for cell viability at 25 μL/well, and the luminescence signals were stabilized by incubation at room temperature for 10 mm. Readings were taken using the multimode microplate reader, […]

HT-29 cells [2] = experiment: Detection of cell proliferation activity by CCK8 method (HT-29); format: cell-based, human; details: CCK8, 96 h
In short: (§1)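 Cells seeded at 1500/well (BT-549, 1640 medium) or 2000/well (HT-29, HCT-116, McCoy's 5A), treated next day with 9-point 1:5 dilutions from 10 μM final, triplicate, for 96 h. CCK8 read at 450 nm after 2 h at 37 °C; inhibition versus DMSO, IC50 by non-linear regression.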

BT-549 cells = experiment: Detection of cell proliferation activity by CCK8 method (BT-549); format: cell-based; details: CCK8, 96 h
In short: as §1

HCT-116 cells [3] = experiment: Detection of cell proliferation activity by CCK8 method (HCT-116); format: cell-based; details: CCK8, 96 h
In short: as §1

KIF18A = KIF18A (Homo sapiens (Human), UniProt Q8NI77); experiment: KIF18A enzymatic activity inhibition, ADP-Glo kit; format: biochemical; details: 4 nM KIF18A, 30 μM ATP
Sequence of KIF18A (Q8NI77 1-467): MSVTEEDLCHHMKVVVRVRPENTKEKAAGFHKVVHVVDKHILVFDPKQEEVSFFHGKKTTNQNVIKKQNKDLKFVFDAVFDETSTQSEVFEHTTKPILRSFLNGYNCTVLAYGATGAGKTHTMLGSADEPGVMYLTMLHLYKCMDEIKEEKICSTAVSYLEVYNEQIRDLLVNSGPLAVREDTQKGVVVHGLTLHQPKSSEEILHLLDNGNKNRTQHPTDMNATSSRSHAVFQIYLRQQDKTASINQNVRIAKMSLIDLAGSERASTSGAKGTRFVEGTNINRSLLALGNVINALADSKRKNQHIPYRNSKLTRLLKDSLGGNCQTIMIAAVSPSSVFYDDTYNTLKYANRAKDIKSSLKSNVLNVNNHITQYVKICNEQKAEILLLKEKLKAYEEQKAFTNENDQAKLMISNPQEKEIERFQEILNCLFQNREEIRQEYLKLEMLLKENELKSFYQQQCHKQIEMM
Protocol: In this experiment, an ADP-Glo kit was used to detect the inhibitory activity of the compounds against KIF18A. Each compound was prepared into a 10 mM stock solution with DMSO, which was then diluted at 1:5 to obtain 9 gradients with the initial final concentration set at 10 μM. Meanwhile, a control group and a blank group were also set up. The reaction buffer consisted of 15 mM Tris (pH 7.5), 10 mM MgCl2, and 0.01% Pluronic F-68. 4 nM KIF18A (1467) and the test compound were added to a 384-well plate and incubated at 37° C. for 20 mm. Then, 30 μM ATP was added to initiate the enzymatic reaction, and the plate was incubated at room temperature for 15 min. Finally, the ADP-Glo reagent was added to detect the luminescence intensity, where the luminescence intensity is directly proportional to the ADP content. Inhibition rate (%)=[…]. Sample signal is the value of the compound group, and DMSO signal is the value of the DMSO control group. Then, the inhibition rate at each concentration was calculated, and the IC50 was determined by fitting using the GraphPadPrism 7.0 software.

HT-29 cells [4] = experiment: Mitotic index analysis, pH3 expression in HT-29 cells; format: cell-based, human; details: 24 h treatment
In short: (§2)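 HCT-116 or HT-29 cells treated 24 h with 9-point 3-fold dilutions from 10 μM, then fixed and immunostained for phospho-histone H3 with DRAQ5 counterstain. Near-infrared fluorescence read at 700/800 nm; pH3 expressed as % of DMSO control and EC50 fitted.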

HCT-116 cells [5] = experiment: Mitotic index analysis, pH3 expression in HCT-116 cells; format: cell-based; details: 24 h treatment
In short: as §2

[6] = Pharmacokinetic test in rats; format: in vivo; details: SD rats, PO @5mpk; for AUC / Cmax / half-life: rat, plasma, 5 mg/kg; for half-life: read-out: t½ (converted)
Protocol: In this example, the pharmacokinetic behavior of the compounds after intravenous injection (IV) and intragastric (PO) administration in SD rats was tested.
On the day of administration, rats were weighed for actual body weight and the administration volume was calculated. Each compound was tested in two groups with 3 rats in each group; one group was subjected to administration by single intravenous injection, and the other group was subjected to single intragastric administration. Whole blood samples were collected via the jugular vein at prescribed time points (0.25 h, 0.5 h, 1 h, 2 h, 4 h, 8 h, and 24 h after administration). After blood sample collection, the samples were immediately transferred to labeled commercial sample tubes containing K2-EDTA (0.85-1.15 mg), followed by centrifugation (3200×g, 4° C., 10 min) and plasma collection. The plasma was transferred to a pre-cooled centrifuge tube, frozen in dry ice, and then stored in an ultra-low temperature freezer at −60° C. or lower until the LC-MS/MS analysis.
Plasma concentrations were determined by the LC-MS/MS method. Plasma drug concentration data for the compounds were processed using a non-compartmental model in the WinNonlin Version 6.3 (Pharsight, Mountain View, CA) pharmacokinetic software. The relevant pharmacokinetic parameters were calculated by a linear-log trapezoidal method.

OVCAR3 cells [7] = experiment: Detection of cell proliferation activity by CCK8 method (OVCAR3); format: cell-based
In short: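 OVCAR3 tumor cells in log-phase growth were trypsinized, counted and plated at 180 μL per well in 96-well plates, with PBS in the outer wells. The following day, compounds were added in 9 concentrations (1:5 dilutions starting at 10 μM final) in triplicate alongside DMSO controls. After 96 h, medium was swapped for 100 μL medium containing 10% CCK8. Plates were incubated 2 h at 37° C and read at 450 nm. Background-corrected inhibition relative to DMSO was fitted by non-linear regression in GraphPad Prism 7.0 to obtain IC50.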

SMILES	IC50 (OVCAR3 cells [1]; Homo sapiens, OVCAR-3, 168 h) [nM]	IC50 (HT-29 cells [2]; Homo sapiens) [nM]	IC50 (BT-549 cells; Homo sapiens) [nM]	IC50 (HCT-116 cells [3]; Homo sapiens) [nM]	IC50 (KIF18A) [nM]	EC50 (HT-29 cells [4]; Homo sapiens) [nM]	EC50 (HCT-116 cells [5]; Homo sapiens) [nM]	F [6] [%]	AUC [6] [µM·h]	Cmax [6] [nM]	half-life [6] [h]	IC50 (OVCAR3 cells [1]) [nM]	IC50 (OVCAR3 cells [7]; CCK8, 96 h) [nM]	IC50 (HT-29 cells [2]) [nM]	IC50 (BT-549 cells) [nM]	IC50 (HCT-116 cells [3]) [nM]	EC50 (HT-29 cells [4]) [nM]	EC50 (HCT-116 cells [5]) [nM]	IC50 (OVCAR3 cells [7]; Homo sapiens, OVCAR-3, CCK8, 96 h) [nM]
O=C(Nc1cn2ccnc2c(N2CCOCC2)n1)c1ccc(NS(=O)(=O)CCO)cc1N1CCC2(CC1)CC2 [Compound 11]	36	146	109	> 10000	15.2	139	> 10000	25	0.604	217	2.4								
O=C(Nc1cn2ccnc2c(N2CCCCC2)n1)c1ccc(NS(=O)(=O)CCO)cc1N1CCC2(CC1)CC2 [Compound 12]	15	73	34	> 10000	10.2	51	> 10000	18.3	2.41	526	2.6								
O=C(Nc1cn2cncc2c(N2CCC(F)(F)CC2)n1)c1ccc(NS(=O)(=O)CCO)cc1N1CCC2(CC1)CC2 [Compound 27]					23.1							38.6	27.2	141	81.9	> 10000	34.6	> 10000	
O=C(Nc1cc2nn[nH]c2c(N2CCC(F)(F)CC2)n1)c1ccc(NS(=O)(=O)CCO)cc1N1CCC2(CC1)CC2 [Compound 28]					33.4							27.4	23.4	321	117	> 10000	77.8	> 10000	
O=C(Nc1cn2ccnc2c(N2CC3(CCC3)C2)n1)c1ccc(NS(=O)(=O)CCO)cc1N1CCC2(CC1)CC2 [Compound 29]	220	335	1040	> 10000	63.4	108	> 10000												206
